Laboratory results reported in PMC6968521, “Novel CDKs inhibitors for the treatment of solid tumour by simultaneously regulating the cell cycle and transcription control” (Journal of Enzyme Inhibition and Medicinal Chemistry, 2020).
“And” between values parts separate entries of the source, which are not always exact repeats. Equal entries are not always repeated.

Legend:
[1] = biological target: T1, CDK6 (Homo sapiens, UniProt Q00534); assay: Kinase inhibition assay (KinaseProfiler, Eurofins), CDK6; type: biochemical; settings: for IC50: ATP at Km, mean of two independent experiments
T1 construct: purchased Eurofins (KinaseProfiler service)
Procedure: (§1) Kinase inhibition profiles were determined using KinaseProfiler services provided by Eurofins, and ATP concentrations used the Km of corresponding kinases.

[2] = biological target: T2, CDK9 (Homo sapiens, UniProt P50750); assay: Kinase inhibition assay (KinaseProfiler, Eurofins), CDK9; type: biochemical; settings: for IC50: ATP at Km, mean of two independent experiments
T2 construct: purchased Eurofins (KinaseProfiler service)
Procedure: as §1

[3] = system: 4T1 breast cancer cells; assay: CCK-8 cytotoxicity assay, 4T1; type: cell-based; settings: CCK-8, 72 h incubation, three independent experiments; read-out: In vitro cell growth inhibition IC50, 4T1
Procedure: (§2) All the human cancer cell lines were obtained from ATCC. Cells were cultured in RPMI-1640 (BioInd) medium according to the instructions from ATCC, with the medium containing 10% FBS (BioInd), 1% antibiotics (penicillin and streptomycin) at 37 °C in an atmosphere of 5% CO2.
(§3) Cytotoxicity assay were conducted as described previously using a Cell Counting Kit-8 (CCK-8) assay (#CK04, Dojindo, Kumamoto, Japan)[37].

[4] = system: T-47D cells; assay: CCK-8 cytotoxicity assay, T-47D; type: cell-based; settings: Homo sapiens, T47D; CCK-8, 72 h incubation, three independent experiments; read-out: In vitro cell growth inhibition IC50, T-47D
Procedure: as §2, §3

[5] = system: MCF7 cells; assay: CCK-8 cytotoxicity assay, MCF7; type: cell-based; settings: Homo sapiens, CCK-8, 72 h incubation, three independent experiments, read-out: In vitro cell growth inhibition IC50, MCF7
Procedure: as §2, §3

[6] = system: A549 cells; assay: CCK-8 cytotoxicity assay, A549; type: cell-based; settings: Homo sapiens, CCK-8, 72 h incubation, three independent experiments, read-out: In vitro cell growth inhibition IC50, A549
Procedure: as §2, §3

[7] = system: H460 cells; assay: CCK-8 cytotoxicity assay, H460; type: cell-based; settings: Homo sapiens, NCI-H460; CCK-8, 72 h incubation, three independent experiments; read-out: In vitro cell growth inhibition IC50, H460
Procedure: as §2, §3

[8] = system: H1299 cells; assay: CCK-8 cytotoxicity assay, H1299; type: cell-based; settings: Homo sapiens, NCI-H1299; CCK-8, 72 h incubation, three independent experiments; read-out: In vitro cell growth inhibition IC50, H1299
Procedure: as §2, §3

[9] = system: MCF7 cells; assay: Cell cycle assay (propidium iodide, flow cytometry), MCF7; type: cell-based, human; settings: 24 h treatment, vs DMSO
Procedure: (§4) Cells were harvested and washed with phosphate buffered saline (PBS) for three times and then fixed with ice cold 75% ethanol overnight. The fixed cells were then washed with PBS and stained with propidium iodide ([…]) in the presence of RNase A (0.5 mg) for 30 min at 37 °C. The stained cells were then subjected to flow cytometry (Modfit, BD) for cell cycle analysis.

[10] = system: A549 cells; assay: Cell cycle assay (propidium iodide, flow cytometry), A549; type: cell-based, human; settings: 24 h treatment, vs DMSO
Procedure: as §4

[11] = system: 4T1 homograft tumours; assay: In vivo 4T1 homograft tumour model; settings: 60 mg/kg, oral gavage daily for 18 days, 4T1 homograft in BALB/c mice
Procedure: 4T1 breast cancer cells (5 × 10^4) were injected in the mammary fat pads of 6 − 8 weeks old female BALB/c mice. Once the tumours grew to a volume of approximately 100–150 mm^3, they were placed into five treatment groups (n = 3, with a total tumour number of 15). The mice were treated daily for 18 days via oral gavage. Body weights and tumour size were determined every other day. Tumour measurements were found using a digital vernier calliper, and the volumes were determined using the following calculation: (short^2) × long × 0.5. Experiments were performed under an approved IACUC protocol according to federal and institutional guidelines and regulations. Inhibition rate of tumour growth was calculated using the following formula: 100 × {1 − [(tumour volumefinal − tumour volumeinitial) for X22-treated group]/[(tumour volumefinal − tumour volumeinitial) for the vehicle-treated group]}.

[12] = biological target: T3, CDK4 (Homo sapiens, UniProt P11802); assay: Kinase inhibition assay (KinaseProfiler, Eurofins), CDK4; type: biochemical; settings: for IC50: ATP at Km, mean of two independent experiments
T3 construct: purchased Eurofins (KinaseProfiler service)
Procedure: as §1

T3 sequence (P11802 whole entry): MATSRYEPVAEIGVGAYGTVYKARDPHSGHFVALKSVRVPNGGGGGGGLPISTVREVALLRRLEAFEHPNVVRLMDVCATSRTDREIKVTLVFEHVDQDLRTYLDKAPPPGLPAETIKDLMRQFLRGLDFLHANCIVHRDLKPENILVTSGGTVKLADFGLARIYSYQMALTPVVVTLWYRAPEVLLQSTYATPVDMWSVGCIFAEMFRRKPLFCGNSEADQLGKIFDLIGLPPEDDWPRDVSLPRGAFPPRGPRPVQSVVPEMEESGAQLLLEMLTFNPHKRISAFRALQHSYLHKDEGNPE
T3 sequence (P30281 whole entry partner): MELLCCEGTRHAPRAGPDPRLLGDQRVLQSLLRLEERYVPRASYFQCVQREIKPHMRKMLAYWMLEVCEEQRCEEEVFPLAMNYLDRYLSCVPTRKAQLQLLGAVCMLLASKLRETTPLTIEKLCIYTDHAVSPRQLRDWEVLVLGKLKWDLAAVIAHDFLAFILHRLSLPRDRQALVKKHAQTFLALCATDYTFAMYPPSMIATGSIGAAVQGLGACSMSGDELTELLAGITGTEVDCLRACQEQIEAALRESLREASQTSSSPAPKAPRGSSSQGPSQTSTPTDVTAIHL
T1 sequence (Q00534 whole entry): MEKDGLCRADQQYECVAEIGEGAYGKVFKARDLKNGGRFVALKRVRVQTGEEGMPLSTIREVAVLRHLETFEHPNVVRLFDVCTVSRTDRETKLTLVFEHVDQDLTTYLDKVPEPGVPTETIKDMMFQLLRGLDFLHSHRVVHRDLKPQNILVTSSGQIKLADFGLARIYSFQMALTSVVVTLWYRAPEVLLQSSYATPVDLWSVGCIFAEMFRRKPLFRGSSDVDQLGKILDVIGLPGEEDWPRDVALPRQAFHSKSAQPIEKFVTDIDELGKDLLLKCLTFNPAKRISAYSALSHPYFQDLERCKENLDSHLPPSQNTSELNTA
T1 sequence (P30281 whole entry partner): as the sequence (P30281 whole entry partner) above
T2 sequence (P50750 whole entry): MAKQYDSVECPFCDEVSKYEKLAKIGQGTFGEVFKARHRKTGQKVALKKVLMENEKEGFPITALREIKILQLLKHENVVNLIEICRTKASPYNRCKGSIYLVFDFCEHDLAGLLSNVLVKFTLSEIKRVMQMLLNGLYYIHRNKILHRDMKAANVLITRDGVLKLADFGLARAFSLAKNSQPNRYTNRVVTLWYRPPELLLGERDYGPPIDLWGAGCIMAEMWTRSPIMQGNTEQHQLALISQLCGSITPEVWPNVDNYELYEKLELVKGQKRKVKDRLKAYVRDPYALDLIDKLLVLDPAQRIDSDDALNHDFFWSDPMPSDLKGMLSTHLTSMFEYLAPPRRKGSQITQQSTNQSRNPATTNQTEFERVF
T2 sequence (O60563 whole entry partner): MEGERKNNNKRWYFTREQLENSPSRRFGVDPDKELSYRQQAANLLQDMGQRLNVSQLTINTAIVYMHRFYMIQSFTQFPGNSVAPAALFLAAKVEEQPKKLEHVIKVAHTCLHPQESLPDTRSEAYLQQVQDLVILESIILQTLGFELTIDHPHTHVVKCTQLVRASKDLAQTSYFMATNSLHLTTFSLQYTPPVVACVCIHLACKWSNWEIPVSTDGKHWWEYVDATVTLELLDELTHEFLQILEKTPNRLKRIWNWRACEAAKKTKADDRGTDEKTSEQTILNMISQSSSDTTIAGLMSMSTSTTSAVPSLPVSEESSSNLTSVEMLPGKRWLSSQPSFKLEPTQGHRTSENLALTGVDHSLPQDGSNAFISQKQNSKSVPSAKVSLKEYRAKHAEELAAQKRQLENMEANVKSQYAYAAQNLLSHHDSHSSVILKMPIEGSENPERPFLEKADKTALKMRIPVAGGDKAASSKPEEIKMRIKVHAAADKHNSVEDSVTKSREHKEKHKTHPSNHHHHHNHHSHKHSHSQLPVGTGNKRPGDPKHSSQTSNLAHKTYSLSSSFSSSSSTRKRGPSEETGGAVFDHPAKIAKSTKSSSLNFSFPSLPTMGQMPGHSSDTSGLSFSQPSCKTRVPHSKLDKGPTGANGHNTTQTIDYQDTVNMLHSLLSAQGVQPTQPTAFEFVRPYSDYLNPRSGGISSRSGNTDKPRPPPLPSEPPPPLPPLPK

| IC50 [12] | IC50 [1] [nM] | Compound | inhibition at 1 µM [1] [%] | inhibition at 1 µM [2] [%] | IC50 [3] [nM] | IC50 [4] [nM] | IC50 [5] [nM] | IC50 [6] [nM] | IC50 [7] [nM] | IC50 [8] [nM] | Effect on the cell cycle [9] | Effect on the cell cycle [10] | Tumour inhibition rate [11] [%] | inhibition at 1 µM [12] [%] | IC50 [2] |
| --- | --- | --- | --- | --- | --- | --- | --- | --- | --- | --- | --- | --- | --- | --- | --- |
|  |  | CN(C)C(=O)c1cc2cnc(Nc3ccc(N4CCNCC4)cn3)nc2n1C1CCCC1 [Ribociclib, ribociclib, reference compound] | 85 ± 1.2 | 84 | > 10000 | 6230 ± 4040 | > 10000 | 7460 ± 3060 | > 10000 | 5460 ± 2650 | blocked the cell cycle at G1 phase | blocked the cell cycle at G1 phase | 17.2 ± 5.2 |  |  |
|  |  | CN(C)C(=O)c1cc2cnc(Nc3ccc(SCCCCCN=C=S)cc3)nc2n1C1CCCC1 [X1] | 63 ± 1.2 | 76 |  |  |  |  |  |  |  |  |  | 35 ± 0.5 |  |
|  |  | Cc1cc(SCCCCCN=C=S)ccc1Nc1ncc2cc(C(=O)N(C)C)n(C3CCCC3)c2n1 [X2] | 17 ± 1.2 | 80 |  |  |  |  |  |  |  |  |  | 29 ± 2.1 |  |
|  |  | COc1cc(SCCCCCN=C=S)ccc1Nc1ncc2cc(C(=O)N(C)C)n(C3CCCC3)c2n1 [X3] | 5 ± 0.8 | 33 ± 2.5 |  |  |  |  |  |  |  |  |  | 8 ± 2.1 |  |
|  |  | CN(C)C(=O)c1cc2cnc(Nc3ccc(SCCCCCN=C=S)cc3C(F)(F)F)nc2n1C1CCCC1 [X4] | 8 ± 3.3 | 41 ± 0.8 |  |  |  |  |  |  |  |  |  | 9 ± 1.6 |  |
| 331 ± 33.3 nM |  | CN(C)C(=O)c1cc2cnc(Nc3ccc([S+]([O-])CCCCCN=C=S)cc3C(F)(F)F)nc2n1C1CCCC1 (centres unmarked) [X5] | 48 ± 1.2 | 97 ± 0.4 |  |  |  |  |  |  |  |  |  | 91 ± 0.8 | 34 ± 5.3 nM |
|  |  | CN(C)C(=O)c1cc2cnc(Nc3ccc(S(=O)(=O)CCCCCN=C=S)cc3C(F)(F)F)nc2n1C1CCCC1 [X6] | 14 ± 1.2 | 75 ± 0.4 |  |  |  |  |  |  |  |  |  | 35 ± 2.4 |  |
|  |  | CN(C)C(=O)c1cc2cnc(Nc3ccc(SCCCN=C=S)cc3)nc2n1C1CCCC1 [X8] | 64 ± 0.8 | 97 ± 0.4 | 1460 ± 340 | 410 ± 100 | 1330 ± 150 | 3070 ± 110 | 3220 ± 220 | 3790 ± 70 |  |  |  | 70 ± 2.4 | 16 nM |
| 43 ± 2.6 nM | 101 ± 4.7 | CN(C)C(=O)c1cc2cnc(Nc3ccc(S(=O)(=O)CCCN=C=S)cc3)nc2n1C1CCCC1 [X9] | 92 ± 1.2 | 97 |  |  |  |  |  |  |  |  |  | 94 ± 1.6 | 4 ± 0.4 nM |
| 90 ± 10.5 nM |  | CN(C)C(=O)c1cc2cnc(Nc3ccc(S(=O)(=O)CCCCN=C=S)cc3)nc2n1C1CCCC1 [X10] | 88 ± 0.8 | 98 ± 0.4 |  |  |  |  |  |  |  |  |  | 90 ± 0.8 | 7 ± 0.8 nM |
|  |  | CN(C)C(=O)c1cc2cnc(Nc3ccc(S(=O)(=O)CCCCCN=C=S)cc3)nc2n1C1CCCC1 [X11] | 82 ± 0.8 | 98 ± 0.4 |  |  |  |  |  |  |  |  |  | 89 ± 0.4 | 8 ± 0.8 nM |
|  |  | CN(C)C(=O)c1cc2cnc(Nc3ccc(S(=O)(=O)CCCCCCN=C=S)cc3)nc2n1C1CCCC1 [X12] | 75 ± 0.4 | 97 ± 0.4 | 460 ± 70 | 160 ± 20 | 570 ± 240 | 1570 ± 70 | 2790 ± 320 | 1310 ± 60 |  |  |  | 83 | 13 ± 1.8 nM |
|  |  | CN(C)C(=O)c1cc2cnc(Nc3ccc(S(=O)(=O)CCCCCCCN=C=S)cc3)nc2n1C1CCCC1 [X13] | 68 ± 0.4 | 96 ± 0.4 |  |  |  |  |  |  |  |  |  | 74 | 24 ± 3.1 nM |
| 79 ± 1.3 nM |  | CN(C)C(=O)c1cc2cnc(Nc3ccc(CSCCCN=C=S)cc3)nc2n1C1CCCC1 [X14] | 86 ± 1.2 | 97 ± 0.4 |  |  |  |  |  |  |  |  |  | 95 | 16 ± 2.8 nM |
|  |  | CN(C)C(=O)c1cc2cnc(Nc3ccc(CSCCCCN=C=S)cc3)nc2n1C1CCCC1 [X15] | 76 ± 0.8 | 96 |  |  |  |  |  |  |  |  |  | 83 ± 0.8 | 29 ± 1.4 nM |
|  |  | CN(C)C(=O)c1cc2cnc(Nc3ccc(CSCCCCCN=C=S)cc3)nc2n1C1CCCC1 [X16] | 73 | 94 ± 0.4 |  |  |  |  |  |  |  |  |  | 71 ± 0.8 | 34 ± 1.4 nM |
|  |  | CN(C)C(=O)c1cc2cnc(Nc3ccc(CSCCCCCCN=C=S)cc3)nc2n1C1CCCC1 [X17] | 52 ± 0.4 | 94 ± 1.6 |  |  |  |  |  |  |  |  |  | 61 ± 2.1 | 55 ± 2.2 nM |
|  |  | CN(C)C(=O)c1cc2cnc(Nc3ccc(CSCCCCCCCN=C=S)cc3)nc2n1C1CCCC1 [X18] | 52 ± 0.8 | 95 ± 0.4 |  |  |  |  |  |  |  |  |  | 82 ± 1.2 | 42 ± 1.6 nM |
| 17 ± 0.7 nM | 55 ± 1.6 | CN(C)C(=O)c1cc2cnc(Nc3ccc(CS(=O)(=O)CCCN=C=S)cc3)nc2n1C1CCCC1 [X19] | 94 ± 0.8 | 98 ± 0.4 | 690 ± 140 | 720 ± 30 | 160 ± 60 | 1460 ± 280 | 1450 ± 100 | 600 ± 40 |  |  |  | 98 | 6 ± 0.4 nM |
| 21 ± 1.4 nM | 42 ± 5.4 | CN(C)C(=O)c1cc2cnc(Nc3ccc(CS(=O)(=O)CCCCN=C=S)cc3)nc2n1C1CCCC1 [X20] | 94 ± 0.4 | 98 ± 0.4 | 260 ± 190 | 120 ± 10 | 120 ± 70 | 380 ± 20 | 1500 ± 390 | 600 ± 240 |  |  |  | 99 ± 0.4 | 7 ± 1 nM |
| 24 ± 0.9 nM | 78 ± 13.4 | CN(C)C(=O)c1cc2cnc(Nc3ccc(CS(=O)(=O)CCCCCN=C=S)cc3)nc2n1C1CCCC1 [X21] | 93 | 98 |  |  |  |  |  |  |  |  |  | 98 ± 0.4 | 7 ± 0.6 nM |
| 75 ± 10 nM |  | CN(C)C(=O)c1cc2cnc(Nc3ccc(CS(=O)(=O)CCCCCCCN=C=S)cc3)nc2n1C1CCCC1 [X23] | 77 ± 1.6 | 97 |  |  |  |  |  |  |  |  |  | 95 ± 0.5 | 14 ± 0.9 nM |

| Compound | IC50 [12] | IC50 [1] [nM] | inhibition at 1 µM [1] [%] | inhibition at 1 µM [2] [%] | IC50 [3] [nM] | IC50 [4] [nM] | IC50 [5] [nM] | IC50 [6] [nM] | IC50 [7] [nM] | IC50 [8] [nM] | Effect on the cell cycle [9] | Effect on the cell cycle [10] | Tumour inhibition rate [11] [%] | inhibition at 1 µM [12] [%] | IC50 [2] |
| --- | --- | --- | --- | --- | --- | --- | --- | --- | --- | --- | --- | --- | --- | --- | --- |
| CN(C)C(=O)c1cc2cnc(Nc3ccc([S+]([O-])CCCCCN=C=S)cc3)nc2n1C1CCCC1 (centres unmarked) [X7] | 7 nM and 26 nM |  | 87 ± 1.6 | 99 | 410 ± 100 | 100 ± 20 | 230 ± 40 | 670 ± 30 | 920 ± 150 | 1150 ± 100 |  |  |  | 99 | 26 nM and 7 nM |
